From patent US12540163B2 (priority 2021, dated 2026)
Where “and” joins values, the source holds several entries; their conditions need not be identical. Equal values may be shown once.

Experiments:
hHv1 = hHv1 (Homo sapiens, UniProt Q96D96)
[1] = system: non-capacitated human sperm
[2] = system: non-capacitated human sperm; remark: listed apart in the source

Chain of hHv1 (Q96D96 whole entry): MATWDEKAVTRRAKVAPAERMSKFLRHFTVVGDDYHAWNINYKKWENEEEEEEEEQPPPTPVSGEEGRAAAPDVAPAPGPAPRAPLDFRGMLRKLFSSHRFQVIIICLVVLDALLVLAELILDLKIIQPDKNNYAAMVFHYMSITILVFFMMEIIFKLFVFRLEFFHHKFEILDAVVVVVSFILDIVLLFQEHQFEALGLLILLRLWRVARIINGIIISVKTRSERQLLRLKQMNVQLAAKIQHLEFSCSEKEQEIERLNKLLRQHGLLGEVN

O=C(O)CN(CCN(CC(=O)O)CC(=O)O)CC(=O)O [EDTA]
Sperm H+ current V1/2 after application (hHv1 in human sperm): 4 mV and 4 ± 1 mV
Sperm H+ current V1/2 shift (hHv1 in human sperm): 11 mV
hHv1 in HEK293T cells V1/2 after application (hHv1): −29 ± 3 mV

CC(C)[C@H]1c2ccc(F)cc2CC[C@@]1(CCN(C)CCCc1nc2ccccc2[nH]1)OC(=O)C1CC1 [NNC]
inhibition of Alb-potentiated [Ca2+]i increase [1]: inhibited

bovine serum albumin [BSA]
increase of progesterone-induced peak [Ca2+]i [1]: 2.2 fold
change of pHi [2]: increased the speed of cytoplasmic alkalization
